The source of these data is patent publication US20070191336A1 (priority 2003, published 2007).

Structures are written as SMILES. Like-named read-outs stand apart in the source and are kept apart here.

Test [1] has as its system LPS-induced TNF-alpha release from human peripheral blood mononuclear leukocytes. The test is described as follows: Human peripheral blood mononuclear leukocyte cell assay (LPS-induced TNF-alpha release, ELISA). It is filed as cell-based. The following applies: 25 ng/mL LPS, 16 hours incubation, read-out: IC50 for inhibition of TNF-alpha release. How it is done:
The quantity of LPS-induced tumor necrosis factor-alpha (TNF-alpha) cytokine release is measured by a commercially available Enzyme-Linked Immunosorbent Assay (ELISA) kit. Test compounds are evaluated for their ability to inhibit TNF-alpha release. […] Test compounds evaluated are illustrated in Table 4.
Background: In an ELISA, binding on a coated surface is turned into a signal by an enzyme label.

The target of test [2] is T1, phospho p-38 alpha kinase (Homo sapiens, UniProt Q16539).
T1 construct: purchased Panvera
The test is described as follows: P-38 alpha kinase assay (spectrophotometric, pyruvate kinase/lactate dehydrogenase coupled). It is filed as biochemical. The following applies: for IC50: rates from […] to 2 h time frame.

The target of test [3] is p38 MAP kinase (unphosphorylated p38-alpha kinase) (Homo sapiens, UniProt Q16539). The test is described as follows: P38 MAP kinase binding assay (fluorescence competition with SKF 86002 probe). Particulars: for Time-dependent: time-dependent if IC50 values decrease with the reaction time (more than two-fold in four hours). How it is done:
The reaction was initiated by addition of the enzyme. […] By comparison of rfu (relative fluorescence unit) values with that of a control (in the absence of an inhibitor), the percentage of inhibition at each concentration of the inhibitor was calculated. IC50 value for the inhibitor was calculated from the % inhibition values obtained at a range of concentrations of the inhibitor using Prism. When time-dependent inhibition was assessed, the plate was read at multiple reaction times such as 0.5, 1, 2, 3, 4 and 6 hours. The IC50 values were calculated at the each time point. An inhibition was assigned as time-dependent if the IC50 values decrease with the reaction time (more than two-fold in four hours).

p38 MAP kinase (unphosphorylated p38-alpha kinase), sequence (Q16539 whole entry): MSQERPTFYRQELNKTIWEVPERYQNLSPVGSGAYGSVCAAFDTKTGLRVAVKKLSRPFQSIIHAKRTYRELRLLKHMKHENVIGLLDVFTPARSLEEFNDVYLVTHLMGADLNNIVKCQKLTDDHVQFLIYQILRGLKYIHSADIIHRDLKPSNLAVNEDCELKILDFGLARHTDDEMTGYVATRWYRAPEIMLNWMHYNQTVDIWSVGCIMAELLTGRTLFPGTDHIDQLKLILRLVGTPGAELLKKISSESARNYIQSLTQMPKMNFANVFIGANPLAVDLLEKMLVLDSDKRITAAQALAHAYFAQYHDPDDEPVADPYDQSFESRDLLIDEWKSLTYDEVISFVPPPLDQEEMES
T1 sequence (Q16539 whole entry): as above

For `CC(C)(C)c1cc(NC(=O)Nc2cccc3ccccc23)n(-c2cccc(CN3C(=O)CNS3(=O)=O)c2)n1` [Example 3, 1-(3-tert-butyl-1-{[3-(1,1,3-trioxo-[1,2,5]thiadiazolidin-2-yl)methyl]phenyl}-1H-pyrazol-5-yl)-3-(naphthalen-1-yl)urea], the IC50 in test [1] came to 6100 nM.

`CCOC(=O)CCc1ccc(-n2nc(C(C)(C)C)cc2NC(=O)Nc2cccc3ccccc23)cc1` [Example 296, ethyl 3-(4-(3-tert-butyl-5-(3-(naphthalen-1-yl)ureido)-1H-pyrazol-1-yl)phenyl)propanoate]: in test [1], the IC50 was 3490 nM.

As for `CC1(C(=O)O)CC2(C)CC(C)(C1)C(=O)N(Cc1cccc(-n3nc(C(C)(C)C)cc3NC(=O)Nc3ccc(Cl)cc3)c1)C2=O` (centres unmarked) [Example 12], the inhibition at 10 µM in test [2] (read-out: % inhibition @ concentration, Table 2, at 10 uM) worked out at 70%. For the same compound, in test [3], the IC50 was approximately 10000 nM and the Time-dependent result is given as “No”.

As for `CC(C)(C)c1cc(NC(=O)Nc2cccc3ccccc23)n(-c2ccc(CN)cc2)n1` [Example 45, 1-{3-tert-butyl-1-[4-(aminomethyl)phenyl]-1H-pyrazol-5-yl}-3-(naphthalen-1-yl)urea], the IC50 in test [2] (Table 2) is 480 nM; in test [3] (read-out: IC50) it was 1860 nM. For the same compound, the Time-dependent entry in test [3] was “No”.

For the compound `CC(C)(C)c1cc(NC(=O)Nc2cccc3ccccc23)n(-c2cccc(CC(=O)N3CCOCC3)c2)n1` [Example 21, 1-{3-tert-butyl-1-[3-(2-morpholino-2-oxoethyl)phenyl]-1H-pyrazol-5-yl}-3-(naphthalene-1-yl)urea], the IC50 in test [1] came out at 3400 nM; in test [2] (Table 2), 171 nM; in test [3], 48 nM. Moreover, the Time-dependent result in test [3] was “Yes”.

As to `CC(C)(C)c1cc(NC(=O)Nc2ccc(Br)cc2)n(-c2ccc(CO)cc2)n1` [Example 60], the IC50 in test [1] came out at 2340 nM.

Consider `CC1(C(=O)O)CC2(C)CC(C)(C1)C(=O)N(Cc1cccc(-n3nc(C(C)(C)C)cc3NC(=O)Nc3cccc4ccccc34)c1)C2=O` (centres unmarked) [Example 11], for which the IC50 in test [2] (Table 2) was 953 nM; in test [3] (read-out: IC50) it was 2150 nM. The Time-dependent entry in test [3] was “No”.

Consider `CC(C)(C)c1cc(NC(=O)Nc2cccc3ccccc23)n(-c2cccc(CCC(=O)O)c2)n1` [Example 29], for which the IC50 in test [1] is 2680 nM.

On to `CC(C)(C)c1cc(NC(=O)Nc2cccc3ccccc23)n(-c2ccc(CCC(=O)O)cc2)n1` [Example 31, 3-{4-[3-tert-butyl-5-(3-(naphthalene-1-yl)ureido]-1H-pyrazol-1-yl}phenyl)propanonic acid], for which, in test [1], the IC50 is 4520 nM.

`CC1(C)C(=O)NN(Cc2cccc(-n3nc(C(C)(C)C)cc3NC(=O)Nc3cccc4ccccc34)c2)C1=O` [Example 13, 1-(3-tert-butyl-1-{3-[(4,4-dimethyl-3,5-dioxopyrazolidin-1-yl)methyl]phenyl}-1H-pyrazol-5-yl)-3-(naphthalen-1-yl)urea]: the IC50 in test [1] turned out to be 6320 nM.

The compound `CC(C)(C)c1cc(NC(=O)Nc2ccc(Cl)cc2)n(-c2cccc(CN3C(=O)C(=O)N(c4ccccc4)C3=O)c2)n1` [Example 494, 1-(3-t-butyl-1-(3-[(2,4,5-trioxo-3-phenylimidazolidin-1-yl)methyl]phenyl}-1H-pyrazol-5-yl)-3-(4-chlorophenyl)urea] registered an IC50 in test [2] (Table 3) of 670 nM.

Consider `CC(C)(C)c1cc(NC(=O)Nc2cccc(Br)c2)n(-c2cccc(CO)c2)n1` [Example 407, 1-{3-t-butyl-1-[3-(hydroxymethyl)phenyl]-1H-pyrazol-5-yl}-3-(3-bromophenyl)urea], for which half-maximal inhibition in test [2] (Table 3) (IC50) was put at 10.3 nM.

Regarding `CCOC(=O)COc1ccc(-n2nc(C(C)(C)C)cc2NC(=O)Nc2ccc(Cl)cc2)cc1` [Example 525], in test [2] (read-out: % Inhibition @ concentration, Table 3, at 1 uM), the inhibition at 1 µM was found to be 11%.

As for `CC(C)(C)c1cc(NC(=O)Nc2cccc3ccccc23)n(-c2cccc(CCN3CCOCC3)c2)n1` [Example 300], the IC50 in test [1] is 4780 nM.

Usually IC50 stands for the concentration at which inhibition is half-maximal.
